# pIC50: −log10 of the molar value. Like-named read-outs stand apart in the source and are kept apart here.
# Legend:
# [1] = target: T1, Cyclooxygenase-1 (COX-1) (Ovis aries, UniProt P05979); assay: COX-1 inhibition, COX Inhibitor Screening Assay Kit (PGF2α production, ELISA); type: biochemical; settings: compound 50 μM
# T1 construct: purchased Cayman Chemical Company 560101
# T1 sequence (P05979 25-600): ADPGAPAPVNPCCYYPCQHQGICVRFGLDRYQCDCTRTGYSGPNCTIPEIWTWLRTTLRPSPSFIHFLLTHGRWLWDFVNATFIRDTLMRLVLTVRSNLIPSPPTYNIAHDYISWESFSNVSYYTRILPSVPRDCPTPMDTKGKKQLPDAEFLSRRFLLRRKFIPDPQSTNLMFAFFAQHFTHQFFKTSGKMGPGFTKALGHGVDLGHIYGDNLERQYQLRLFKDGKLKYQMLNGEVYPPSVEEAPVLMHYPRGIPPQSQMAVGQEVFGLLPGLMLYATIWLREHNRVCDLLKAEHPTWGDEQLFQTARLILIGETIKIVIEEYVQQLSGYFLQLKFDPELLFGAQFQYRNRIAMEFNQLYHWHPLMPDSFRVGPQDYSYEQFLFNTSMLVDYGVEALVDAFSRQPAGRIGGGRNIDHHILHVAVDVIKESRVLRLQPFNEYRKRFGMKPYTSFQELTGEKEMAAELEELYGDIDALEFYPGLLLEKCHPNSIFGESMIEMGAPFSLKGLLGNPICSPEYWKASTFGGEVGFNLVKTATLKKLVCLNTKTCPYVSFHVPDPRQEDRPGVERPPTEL
# Source text: (§1) For the measurement of the inhibitory activity of the compounds obtained in the Examples against COX-1 and COX-2, a COX Inhibitor Screening Assay Kit manufactured by Cayman Chemical Company (Catalog Nos. 560101 and 560121) was used.
# (§2) Before starting the measurement, a reaction buffer, heme, arachidonic acid, SnCl2, EIA buffer, a washing buffer, prostaglandin (PG)-screening EIA standard solution, PG-screening acetylcholinesterase (AchE), a tracer […], and PG-screening EIA antiserum were provided.
# A reaction solution containing a compound of the Examples (50 μM) and COX-1, or a reaction solution containing a compound of the Examples (300 μM) and COX-2 was allowed to stand at 37° C. for 10 minutes, then 10 μl of arachidonic acid was added thereto, and the resultant mixture was allowed to stand at 37° C. for 2 minutes. After the reaction, 50 μl of 1 N hydrochloric acid was added to the reaction mixture to stop the reaction, and 100 μl of a SnCl2 solution was added thereto. The resultant mixture was allowed to stand at room temperature for 5 minutes.
# 50 μl of antiserum (rabbit anti-PGF2α antibody) was added to each well of a 96-well plate coated with mouse anti-rabbit IgG. Then, 50 μl of a solution prepared by diluting the reaction solution for PGF2α production to 2000-folds, and 50 μl of an AchE tracer were added sequentially to the wells, and the plate was kept at room temperature for 18 hours. Each well washed 5 times with the washing buffer to remove excessive AchE tracer, and then 200 μl of Ellman reagent was added to each well. The plate was kept in the dark room for 60 minutes, and then, absorbance at 405 nm was measured.
# A standard curve was produced using a PG-screening EIA standard solution, and the amount of PGF2α production was determined from the absorbance obtained as described above. The COX-1 inhibition rate at 50 μM of the compound of the Examples, and the COX-2 inhibition rate at 300 μM of the compound of the Examples were calculated.
# [2] = system: collagen-induced platelet aggregation; assay: Platelet aggregation suppressing effect (collagen-induced aggregation in platelet rich plasma); type: cell-based; settings: human PRP, 37° C., collagen as inducer, read-out: Inhibitory effect of collagen-induced platelet aggregation IC50
# Description: Human blood was collected using 3.13% sodium citrate in a volume 1/10 of the blood volume, as an anticoagulant. The collected blood was centrifuged at 180 g for 10 minutes to separate platelet rich plasma (PRP) from the blood. After collecting the PRP fraction in the upper layer, the lower layer was further centrifuged at 1600 g for 10 minutes to fractionate platelet poor plasma (PPP) in the upper layer. One μl of a solution of a compound obtained in the Examples was added to 200 μl of PRP, and the mixture was allowed to stand at 37° C. for 2 minutes. Subsequently, 2 μl of collagen was added thereto, so as to induce platelet aggregation. The platelet aggregation rate was measured using PAM-12C(SSR Engineering, Inc.).
# [3] = target: T2, Cyclooxygenase-2 (COX-2) (Homo sapiens, UniProt P35354); assay: COX-2 inhibition, COX Inhibitor Screening Assay Kit (PGF2α production, ELISA); type: biochemical; settings: compound 300 μM
# T2 construct: purchased Cayman Chemical Company 560121
# T2 sequence (P35354 18-604): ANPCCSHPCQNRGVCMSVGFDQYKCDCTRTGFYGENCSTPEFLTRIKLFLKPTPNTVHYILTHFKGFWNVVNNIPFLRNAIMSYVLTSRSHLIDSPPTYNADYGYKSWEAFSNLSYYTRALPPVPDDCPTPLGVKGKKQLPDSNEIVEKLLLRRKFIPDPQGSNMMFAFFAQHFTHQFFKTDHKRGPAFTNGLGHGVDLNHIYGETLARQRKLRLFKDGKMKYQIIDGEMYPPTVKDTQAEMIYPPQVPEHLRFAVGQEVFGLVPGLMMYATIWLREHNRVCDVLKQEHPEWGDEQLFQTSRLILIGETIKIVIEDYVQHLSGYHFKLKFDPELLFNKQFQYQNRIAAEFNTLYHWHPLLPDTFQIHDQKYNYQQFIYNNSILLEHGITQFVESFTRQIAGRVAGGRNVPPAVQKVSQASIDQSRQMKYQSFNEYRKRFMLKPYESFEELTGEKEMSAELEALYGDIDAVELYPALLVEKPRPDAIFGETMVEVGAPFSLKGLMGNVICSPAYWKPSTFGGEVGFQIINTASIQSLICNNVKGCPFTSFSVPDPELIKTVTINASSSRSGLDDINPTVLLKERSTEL
# Source text: as §1, §2
# A reaction solution containing a compound of the Examples (50 μM) and COX-1, or a reaction solution containing a compound of the Examples (300 μM) and COX-2 was allowed to stand at 37° C. for 10 minutes, then 10 μl of arachidonic acid was added thereto, and the resultant mixture was allowed to stand at 37° C. for 2 minutes. […]
# 50 μl of antiserum (rabbit anti-PGF2α antibody) was added to each well of a 96-well plate coated with mouse anti-rabbit IgG. […] The plate was kept in the dark room for 60 minutes, and then, absorbance at 405 nm was measured.
# A standard curve was produced using a PG-screening EIA standard solution, and the amount of PGF2α production was determined from the absorbance obtained as described above. […]
# [4] = system: collagen-induced platelet aggregation; settings: background art, cited from earlier work
Compound,COX-1 inhibitory action at 50 μM (% inhibition) [1],pIC50 [2],COX-2 inhibitory action at 300 μM (% inhibition) [3],pIC50 ([4]; read-out: IC50 value against collagen-induced platelet aggregation),platelet aggregation inhibitory action compared with inhibitory activity against COX-2 [4]
"COc1ccc(-n2nc(C(=O)N3CCC(OC)CC3)cc2-c2cn(C)cn2)cn1 [Example 73, 1-[1-(6-Methoxy-3-pyridyl)-5-(1-methyl-1H-imidazol-4-yl)-1H-pyrazole-3-carbonyl]-4-methoxypiperidine]",5.9 % inhibition,6.82,15.5 % inhibition,–,–
"COc1ccc(-n2nc(C(=O)N3CCOCC3)cc2-c2cnn(C)c2)cn1 [Example 115, 4-[1-(6-Methoxy-3-pyridyl)-5-(1-methyl-1H-pyrazol-4-yl)-1H-pyrazole-3-carbonyl]morpholine]",−21.2 % inhibition,6.96,23.4 % inhibition,–,–
"COc1ccc(-n2nc(C(=O)N3CCN(C)CC3)cc2-c2ccc[nH]2)nn1 [Example 12, 1-[1-(6-Methoxy-3-pyridazinyl)-5-(1H-pyrrol-2-yl)-1H-pyrazole-3-carbonyl]-4-methylpiperazine]",25.9 % inhibition,6.49,–,–,–
"COc1ccc(-n2nc(C(=O)N3CCN(C)C(=O)C3)cc2-c2cscn2)cn1 [Example 126, 1-[1-(6-Methoxy-3-pyridyl)-5-(thiazol-4-yl)-1H-pyrazole-3-carbonyl]-4-methyl-3-oxopiperazine]",−6.4 % inhibition,6.44,–,–,–
"COc1ccc(-n2nc(C(=O)N3CCN(C)C(=O)C3)cc2-c2ccn(C)n2)cn1 [Example 36, 1-[1-(6-Methoxy-3-pyridyl)-5 (1-methyl-1H-pyrazol-3-yl)-1H-pyrazole-3-carbonyl]-4-methyl-3-oxopiperazine]",1.2 % inhibition,6.43,–,–,–
"Cc1ccc(-c2cc(C(=O)N3CCC(F)(F)CC3)nn2-c2ccc(C)nn2)nc1 [Example 18, 1-[1-(6-Methyl-3-pyridazinyl)-5-(5-methyl-2-pyridyl)-1H-pyrazole-3-carbonyl]-4,4-difluoropiperidine]",−3.0 % inhibition,6.70,–,–,–
"COc1ccc(-c2cc(C(=O)N3CCC(OC)CC3)nn2-c2ccc(C)nc2)nc1 [Example 4, 1-[5-(5-Methoxy-2-pyridyl)-1-(6-methyl-3-pyridyl)-1H-pyrazole-3-carbonyl]-4-methoxypiperidine]",−13.3 % inhibition,6.68,–,–,–
"COc1ccc(-n2nc(C(=O)N3CCOCC3)cc2-c2cscn2)cn1 [Example 118, 4-[1-(6-Methoxy-3-pyridyl)-5-(thiazol-4-yl)-1H-pyrazole-3-carbonyl]morpholine]",−12.7 % inhibition,7.10,–,–,–
"Cc1ccc(-n2nc(C(=O)N3CCC(F)CC3)cc2-c2cnc(C)cn2)cn1 [Example 32, 1-[5-(5-Methyl-2-pyrazinyl)-1-(6-methyl-3-pyridyl)-1H-pyrazole-3-carbonyl]-4-fluoropiperidine]",−8.4 % inhibition,6.68,–,–,–
"COc1ccc(-n2nc(C(=O)N3CCN(C)C(=O)C3)cc2-c2ccn(C)c2)nn1 [Example 124, 1-[1-(6-Methoxy-3-pyridazinyl)-5-(1-methyl-1H-pyrrol-3-yl)-1H-pyrazole-3-carbonyl]-4-methyl-3-oxopiperazine]",8.3 % inhibition,6.36,–,–,–
"COc1ccc(-n2nc(C(=O)N3CCOCC3)cc2-c2cc[nH]n2)cn1 [Example 33, 4-[1-(6-Methoxy-3-pyridyl)-5-(1H-pyrazol-3-yl)-1H-pyrazole-3-carbonyl]morpholine]",−9.5 % inhibition,7.01,–,–,–
CS(=O)(=O)c1ccc(-c2cc(C#N)nn2-c2ccc(F)cc2)cc1 [compound (A)],–,–,–,5.28,–
"COc1ccc(-n2nc(C(=O)N3CCCC(OC)C3)cc2-c2ccccn2)cn1 (centres unmarked) [Example 34, 1-[1-(6-Methoxy-3-pyridyl)-5-(2-pyridyl)-1H-pyrazole-3-carbonyl]-3-methoxypiperidine]",−18.4 % inhibition,7.20,–,–,–
"COc1ccc(-n2nc(C(=O)N3CCC(F)(F)CC3)cc2-c2cnn(C)c2)nn1 [Example 141, 1-[1-(6-Methoxy-3-pyridazinyl)-5-(1-methyl-1H-pyrazol-4-yl)-1H-pyrazole-3-carbonyl]-4,4-difluoropiperidine]",24.4 % inhibition,6.72,–,–,–
"COc1ccc(-n2nc(C(=O)N3CCOCC3)cc2-c2cc[nH]c2)nn1 [Example 41, 1-[1-(6-Methoxy-3-pyridazinyl)-5-(1H-pyrrol-3-yl)-1H-pyrazole-3-carbonyl]morpholine]",−21.3 % inhibition,6.77,–,–,–
COc1ccc(-c2cc(C(F)F)nn2-c2ccc(S(N)(=O)=O)cc2)cc1F [compound (B)],–,–,–,–,not as strong as the inhibitory activity of the compound against COX-2
